# Reference: ChEMBL document CHEMBL1201862, “PubChem BioAssay data set” (2004)
#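 Test compounds were applied to cells in 96-well plates for 48 hours at 5 doses. GI50 = concentration required for 50% inhibition of growth.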 Activity calls are given as the source filed them. Rule as the data show it: active = GI50 up to about 1.1 µM and inactive = higher.
# Legend:
# Assay in all cases: DTP human tumour cell line panel, 48 h
# [1] = system: SK-OV-3
# [2] = system: SN12C
# [3] = system: DLD-1
# [4] = system: SK-MEL-2
# [5] = system: OVCAR-5
# [6] = system: TK-10
# [7] = system: DMS-114
# [8] = system: DMS-273
# [9] = system: XF498
# [10] = system: UACC-62
# [11] = system: M19-MEL
# [12] = system: U-251
# [13] = system: HCT-15
# [14] = system: RPMI-8226
# [15] = system: 786-0
# [16] = system: CAKI-1
# [17] = system: Malme-3M
# [18] = system: KM-20L2
# [19] = system: IGROV-1
# [20] = system: HL-60
# [21] = system: A549
# [22] = system: SR
# [23] = system: COLO 205
# [24] = system: EKVX
# [25] = system: OVCAR-8
# [26] = system: M14
# [27] = system: LOX IMVI
# [28] = system: SW-620
# [29] = system: HCC 2998
# [30] = system: CCRF-CEM
# [31] = system: OVCAR-4
# [32] = system: K562
# [33] = system: HOP-62
# [34] = system: MOLT-4
# [35] = system: LXFL 529
# [36] = system: ACHN
# [37] = system: SK-MEL-5
# [38] = system: SNB-75
# [39] = system: SF-295
# [40] = system: NCI-H226
# [41] = system: NCI-H23
# [42] = system: KM12
# [43] = system: NCI-H460
# [44] = system: NCI-H522
# [45] = system: RXF 393
# [46] = system: HT-29
# [47] = system: UO-31
# [48] = system: HOP-92
# [49] = system: MCF7
# [50] = system: SF-268
# [51] = system: A498
# [52] = system: SNB-19
# [53] = system: SF-539
# [54] = system: HCT-116
# [55] = system: NCI/ADR-RES
# [56] = system: HOP-18
# [57] = system: OVCAR-3
# [58] = system: UACC-257
# [59] = system: SK-MEL-28
# [60] = system: SNB-78
smiles,measurement,setting,value
CC#Cc1c(O)c2c(c(O)c1C#CC)C(=O)c1ccccc1C2=O,GI50,[1],> 100 µM (inactive)
same,GI50,[2],> 100 µM (inactive)
same,GI50,[3],> 100 µM (inactive)
same,GI50,[4],> 100 µM (inactive)
same,GI50,[5],> 100 µM (inactive)
same,GI50,[6],> 100 µM (inactive)
same,GI50,[7],> 100 µM (inactive)
same,GI50,[8],> 100 µM (inactive)
same,GI50,[9],> 100 µM (inactive)
same,GI50,[10],64.6 µM (inactive)
same,GI50,[11],> 100 µM (inactive)
same,GI50,[12],> 100 µM (inactive)
same,GI50,[13],> 100 µM
same,GI50,[14],54.5 µM (inactive)
same,GI50,[15],> 100 µM (inactive)
same,GI50,[16],> 100 µM (inactive)
same,GI50,[17],> 100 µM (inactive)
same,GI50,[18],> 100 µM (inactive)
same,GI50,[19],> 100 µM (inactive)
same,GI50,[20],> 100 µM (inactive)
same,GI50,[21],> 100 µM (inactive)
same,GI50,[22],> 100 µM (inactive)
same,GI50,[23],> 100 µM (inactive)
same,GI50,[24],> 100 µM (inactive)
same,GI50,[25],> 100 µM (inactive)
same,GI50,[26],> 100 µM (inactive)
same,GI50,[27],93.5 µM (inactive)
same,GI50,[28],> 100 µM (inactive)
same,GI50,[29],> 100 µM (inactive)
same,GI50,[30],> 100 µM (inactive)
same,GI50,[31],> 100 µM (inactive)
same,GI50,[32],> 100 µM (inactive)
same,GI50,[33],> 100 µM (inactive)
same,GI50,[34],> 100 µM (inactive)
same,GI50,[35],11 µM (inactive)
same,GI50,[36],> 100 µM (inactive)
same,GI50,[37],> 100 µM (inactive)
O=C(NN1C(=O)CSC1c1ccc(C(F)(F)F)cc1)c1ccncc1 (centres undefined),GI50,[1],> 100 µM (inactive)
same,GI50,[38],> 100 µM (inactive)
same,GI50,[2],> 100 µM (inactive)
same,GI50,[3],> 100 µM (inactive)
same,GI50,[4],> 100 µM (inactive)
same,GI50,[5],> 100 µM (inactive)
same,GI50,[7],> 100 µM (inactive)
same,GI50,[39],> 100 µM (inactive)
same,GI50,[40],> 100 µM (inactive)
same,GI50,[8],> 100 µM (inactive)
same,GI50,[9],> 100 µM (inactive)
same,GI50,[41],> 100 µM (inactive)
same,GI50,[10],> 100 µM (inactive)
same,GI50,[42],> 100 µM (inactive)
same,GI50,[11],> 100 µM (inactive)
same,GI50,[43],> 100 µM (inactive)
same,GI50,[12],> 100 µM (inactive)
same,GI50,[13],> 100 µM
same,GI50,[14],> 65.6 µM (inactive)
same,GI50,[44],> 100 µM (inactive)
same,GI50,[45],97.3 µM (inactive)
same,GI50,[46],> 100 µM (inactive)
same,GI50,[16],> 100 µM (inactive)
same,GI50,[47],> 100 µM (inactive)
same,GI50,[48],> 100 µM (inactive)
same,GI50,[17],> 100 µM (inactive)
same,GI50,[18],> 100 µM (inactive)
same,GI50,[19],> 100 µM (inactive)
same,GI50,[49],> 100 µM (inactive)
same,GI50,[20],> 100 µM (inactive)
same,GI50,[21],> 100 µM (inactive)
same,GI50,[50],> 100 µM (inactive)
same,GI50,[51],> 31.6 µM (inactive)
same,GI50,[24],> 100 µM (inactive)
same,GI50,[25],> 100 µM (inactive)
same,GI50,[52],> 100 µM (inactive)
same,GI50,[27],> 100 µM (inactive)
same,GI50,[53],> 100 µM (inactive)
same,GI50,[28],> 100 µM (inactive)
same,GI50,[29],> 100 µM (inactive)
same,GI50,[54],> 100 µM (inactive)
same,GI50,[30],> 100 µM (inactive)
same,GI50,[55],> 100 µM (inactive)
same,GI50,[56],> 100 µM (inactive)
same,GI50,[31],> 100 µM (inactive)
same,GI50,[32],> 100 µM (inactive)
same,GI50,[57],> 100 µM (inactive)
same,GI50,[33],> 100 µM (inactive)
same,GI50,[34],> 100 µM (inactive)
same,GI50,[58],> 100 µM (inactive)
same,GI50,[59],> 100 µM (inactive)
same,GI50,[60],> 31.6 µM (inactive)
same,GI50,[37],> 100 µM (inactive)
COC(=O)CCC(=O)N1Cc2cc(C)ccc2N(C(=O)CCC(=O)OC)Cc2cc(C)ccc21,GI50,[1],> 100 µM (inactive)
same,GI50,[2],> 100 µM (inactive)
same,GI50,[3],> 100 µM (inactive)
same,GI50,[4],> 100 µM (inactive)
same,GI50,[5],> 100 µM (inactive)
same,GI50,[6],> 100 µM (inactive)
same,GI50,[39],> 100 µM (inactive)
same,GI50,[40],> 100 µM (inactive)
same,GI50,[8],> 100 µM (inactive)
same,GI50,[9],> 100 µM (inactive)
same,GI50,[41],> 100 µM (inactive)
same,GI50,[10],> 100 µM (inactive)
same,GI50,[42],> 100 µM (inactive)
same,GI50,[11],> 100 µM (inactive)
same,GI50,[43],> 100 µM (inactive)
same,GI50,[12],> 100 µM (inactive)
same,GI50,[13],> 100 µM
same,GI50,[14],> 100 µM (inactive)
same,GI50,[44],> 100 µM (inactive)
same,GI50,[15],> 100 µM (inactive)
same,GI50,[45],> 100 µM (inactive)
same,GI50,[46],> 100 µM (inactive)
same,GI50,[16],> 100 µM (inactive)
same,GI50,[47],> 100 µM (inactive)
same,GI50,[48],> 100 µM (inactive)
same,GI50,[19],> 100 µM (inactive)
same,GI50,[20],> 100 µM (inactive)
same,GI50,[21],> 100 µM (inactive)
same,GI50,[50],> 100 µM (inactive)
same,GI50,[22],> 100 µM (inactive)
same,GI50,[23],> 100 µM (inactive)
same,GI50,[24],> 100 µM (inactive)
same,GI50,[25],> 100 µM (inactive)
same,GI50,[26],> 100 µM (inactive)
same,GI50,[27],> 100 µM (inactive)
same,GI50,[53],> 100 µM (inactive)
same,GI50,[28],> 100 µM (inactive)
same,GI50,[54],> 100 µM (inactive)
same,GI50,[30],> 100 µM (inactive)
same,GI50,[56],> 100 µM (inactive)
same,GI50,[31],> 100 µM (inactive)
same,GI50,[32],> 100 µM (inactive)
same,GI50,[57],> 100 µM (inactive)
same,GI50,[33],> 100 µM (inactive)
same,GI50,[34],> 100 µM (inactive)
same,GI50,[59],> 100 µM (inactive)
same,GI50,[60],> 100 µM (inactive)
same,GI50,[36],> 100 µM (inactive)
same,GI50,[37],> 100 µM (inactive)
